US11427586B2, “1,2,4-oxadiazole derivatives as liver X receptor agonists” (NOVARTIS AG, priority 2019, dated 2022)
Like-named read-outs stand apart in the source and are kept apart here.

Tests used:
SCD1 = experiment: Measurement of SCD1 expression in SZ95-SCD1-HiBit cells (HiBiT assay); assay type: cell-based; settings: Homo sapiens; for EC50: read-out: HiBit EC50
Source text: Measurement of SCD1 Expression in SZ95-SCD1-HiBit Cells
SCD1 expression levels in SZ95 cells were quantitated using the HiBiT system (Promega) in which a small peptide sequence (SmBiT) with a larger protein (LgBiT) reconstitutes luciferase activity and can generate a luminescent signal used for quantitation. SZ95-SCD1-HiBit cells were generated by editing the SCD1 gene of SZ95 cells resulting in the addition of an 8 amino acid linker sequence (gssggssg, SEQ ID NO:1) followed by an 11-amino acid SmBiT sequence (vsgwrlfkkis, SEQ ID NO:2) at the carboxy-terminus of the SCD1 protein. The gRNA targeting sequence used was […] (SEQ ID NO: 3) and the SCD1 insertion oligonucleotide encoding the SmBiT sequence was:
SZ95-SCD1-HiBit cells were seeded in 384-well cell culture white plates at a density of 3000 cells/30 μl. Water was added to edge wells to avoid evaporation. Cells were incubated in a humidified incubator with 5% CO2 at 37° C. overnight. Tested compounds were diluted at a ratio of 1:3 in DMSO using an Agilent BRAVO Automated Liquid Handling Platform and, after further serial dilutions, added to cells at final concentrations starting from 18 μM. 2-(3-(3-((2-chloro-3-(trifluoromethyl)benzyl)(2,2-diphenylethyl)amino)propoxy)phenyl)acetic acid was used as a reference compound in each plate. Cells in the assay plate were incubated in a humidified incubator with 5% CO2 at 37° C. for 48 h.
The assay plates were removed from the incubator and allowed to equilibrate to room temperature. Nano-Glo® HiBiT Detection Reagent (Promega; a mixture of Nano-Glo HiBiT Detection Buffer, Nano-Glo HiBiT Detection Substrate, and LgBiT protein, according to the manufacturer's instructions) was added into assay plates, at a volume equal to cell culture medium in each well. Plates were placed on an orbital shaker at a speed of 300-600 rpm for 10 min at room temperature, and read on an EnVision Plate Reader using luminescence detection with a 1 second read time.
The assay measures the increase in SCD1 protein production in vitro. Amax refers to the percent EC50 of the tested compound compared to a reference compound, 2-(3-(3-((2-chloro-3-(trifluoromethyl)benzyl)(2,2-diphenylethyl)amino)propoxy)phenyl)acetic acid.

SZ95 sebocytes = experiment: Sentinel Lipid Assay (SLA), desaturation index in SZ95 sebocytes; assay type: cell-based; settings: Homo sapiens, 72 h; for EC50: read-out: SLA EC50
Experimental: Sentinel Lipid Assay (SLA)
The sentinel lipid assay was used quantify the change in the global desaturation index in SZ95 sebocytes upon administration of certain LXR agonist compounds provided herein. The assay measures a smaller subset of lipid analytes in meibum (termed “sentinel lipids”) which would model the global changes the population of both saturated and desaturated lipids in the cells. In order to define this smaller subset of lipids, a complete lipid profile was recorded on dose response curves (eight levels from 4 nM to 10 uM) of Compounds 1-72. An elastic net regression model was applied separately to both the saturated and desaturated lipids to determine the minimum combination of coefficients and analytes, which could be used to adequately model the total population of lipids. The elastic net model was able to reduce the behavior of 425 lipids to 11 lipids and the correlation between the desaturation indices observed using the complete set of lipids with from the 11 sentinel lipids was 0.96.
A medium throughput assay was created using this reduced set of sentinel lipids. A single batch is defined as triplicate examples of three unique plates (i.e., a single batch of cells is used to create nine plates for LC-MSMS analysis). Lipids were extracted from the cells using a 1:1 mixture of methylene chloride/methanol containing 10 nM of deuterated standards of triglycerides, which are used as internal standards for quantitating the lipid abundance. The lipids were separated prior to mass spectrometric analysis using a five minute HPLC gradient. The abundance of the sentinel lipids and the internal standards are measured using multiple reaction monitor mode (MRM) on a triple quadrupole mass spectrometer. The data was transformed from total ion current to nmoles/10^6 cells, which are multiplied by the coefficients from the elastic net model to determine the effective desaturated and saturated content, and therein the desaturation index of the dosed cells. In order to compare compounds from multiple batches with one another, the measure raw desaturation index was normalized by dividing it by the desaturation index of the DMSO dosed cells, and all data was assessed as the fraction by which the compound increases the desaturation index above 1.
SZ95 (immortalized human sebaceous gland cells) cells were seeded in Greiner bio-one 96-well polypropylene plates that were pre-treated with 50 μg/mL Human Plasma Fibronectin (Thermo Fisher Scientific) at a density of 10^4 cells/135 μl. Cells were incubated in a humidified incubator with 5% CO2 at 37° C. overnight. Test compounds were diluted at a ratio of 1:3 and added to cells at final concentrations starting from 10 μM. 2-(3-(3-((2-chloro-3-(trifluoromethyl)benzyl)(2,2-diphenylethyl)amino)propoxy)phenyl)acetic acid was used as a positive control reference compound in each plate. Cells in the assay plate were incubated in a humidified incubator with 5% CO2 at 37° C. for 72 h.
Culture medium was removed from the cells and cells in culture plates were washed with ice cold phosphate buffered saline three times. Plates were heat sealed and stored in a −80° C. freezer prior to Sentinel lipid assay. The Amax value refers to the percent EC50 of the tested compound compared to a reference compound, 2-(3-(3-((2-chloro-3-(trifluoromethyl)benzyl)(2,2-diphenylethyl)amino)propoxy)phenyl)acetic acid.

[1] = 48 h, normalized Amax based on the reference compound Amax of 100%, read-out: HiBit Normalized Amax
[2] = SZ95-SCD1-HiBit cells, 48 h, SCD1 protein production, luminescence, initial dilution 1:3 in DMSO
[3] = SZ95-SCD1-HiBit cells, 48 h, compared to reference compound, read-out: HiBit Amax
[4] = normalized Amax based on the reference compound Amax of 100%, read-out: SLA Normalized Amax
[5] = SZ95 cells, desaturation index, lowest dose used 4.6 nM
[6] = SZ95 cells, compared to reference compound, read-out: SLA Amax
[7] = footnote a: initial dilution for the compound 1:100 in assay medium rather than 1:3 in DMSO

Row | EC50 (SCD1; [2]) | EC50 (SZ95 sebocytes; [5]) | EC50 (SCD1; [7]) | Structure (SMILES) | Emax (SCD1; [1]) | Emax (SCD1; [3]) | Emax (SZ95 sebocytes; [4]) | Emax (SZ95 sebocytes; [6]) | Emax (SZ95 sebocytes; read-out: SLA Amax) | EC50 (SZ95 sebocytes) | Emax (SZ95 sebocytes; read-out: SLA Normalized Amax)
1 | 0.496 nM | ≤ 4.6 nM |  | CC1(C)C(=O)N(Cc2nc(-c3ccc(OCC(C)(C(F)(F)F)C(F)(F)F)c(C(F)(F)F)c3)no2)C(=O)N1CCC1CCOCC1 [Compound 1, 5,5-dimethyl-1-(2-(tetrahydro-2H-pyran-4-yl)ethyl)-3-((3-(4-(3,3,3-trifluoro-2-methyl-2-(trifluoromethyl)propoxy)-3-(trifluoromethyl)phenyl)-1,2,4-oxadiazol-5-yl)methyl)imidazolidine-2,4-dione] | 91.7% | 87.2% | 87.1% | 83.6% |  |  | 
2 | 1.5 nM | ≤ 4.6 nM |  | CCCC1(C)C(=O)N(Cc2nc(-c3ccc(Oc4ccccc4S(=O)(=O)CC(C)C)c(C(F)(F)F)c3)no2)C(=O)N1CCN1CCOCC1 (stereo not drawn) [Compound 2, 3-((3-(4-(2-(isobutylsulfonyl)phenoxy)-3-(trifluoromethyl)phenyl)-1,2,4-oxadiazol-5-yl)methyl)-5-methyl-1-(2-morpholinoethyl)-5-propylimidazolidine-2,4-dione] | 95.2% | 90.5% | 190% | 182% |  |  | 
3 | 1.24 nM | ≤ 4.6 nM |  | CC(C)CS(=O)(=O)c1ccccc1Oc1ccc(-c2noc(CN3C(=O)N(CCN4CCOCC4)C4(CCCCC4)C3=O)n2)cc1C(F)(F)F [Compound 3, 3-((3-(4-(2-(isobutylsulfonyl)phenoxy)-3-(trifluoromethyl)phenyl)-1,2,4-oxadiazol-5-yl)methyl)-1-(2-morpholinoethyl)-1,3-diazaspiro[4.5]decane-2,4-dione] | 78.5% | 74.7% | 117% | 112% |  |  | 
4 |  | ≤ 4.6 nM |  | CC(C)CS(=O)(=O)c1ccccc1Oc1ccc(-c2noc(CN3C(=O)N(CCC4CCOCC4)C(C)(C)C3=O)n2)cc1C(F)(F)F [Compound 4, 3-((3-(4-(2-(isobutylsulfonyl)phenoxy)-3-(trifluoromethyl)phenyl)-1,2,4-oxadiazol-5-yl)methyl)-5,5-dimethyl-1-(2-(tetrahydro-2H-pyran-4-yl)ethyl)imidazolidine-2,4-dione] |  |  | 152% | 146% |  |  | 
5 |  |  | 255 nM | CC(C)CS(=O)(=O)c1ccccc1Oc1ccc(-c2noc(CN3C(=O)NC(C)(C)C3=O)n2)cc1C(F)(F)F [Compound 50a, 3-((3-(4-(2-(isobutylsulfonyl)phenoxy)-3-(trifluoromethyl)phenyl)-1,2,4-oxadiazol-5-yl)methyl)-5,5-dimethylimidazolidine-2,4-dione] | 70.5% | 67% |  |  |  |  | 
6 |  | ≤ 4.6 nM |  | CC1(C)C(=O)N(Cc2nc(-c3ccc(Oc4ccccc4S(=O)(=O)C4CCOC4)c(C(F)(F)F)c3)no2)C(=O)N1CCC1CCOCC1 (stereo not drawn) [Compound 59, 5,5-dimethyl-1-(2-(tetrahydro-2H-pyran-4-yl)ethyl)-3-((3-(4-(2-((tetrahydrofuran-3-yl)sulfonyl)phenoxy)-3-(trifluoromethyl)phenyl)-1,2,4-oxadiazol-5-yl)methyl)imidazolidine-2,4-dione] |  |  | 140% | 135% |  |  | 
7 |  |  |  | CC(C)CS(=O)(=O)c1ccccc1Oc1ccc(-c2noc(CN3C(=O)N(CCN4CCOCC4)C(C)(CN(C)C)C3=O)n2)cc1C(F)(F)F (stereo not drawn) [Compound 60, 5-((dimethylamino)methyl)-3-((3-(4-(2-(isobutylsulfonyl)phenoxy)-3-(trifluoromethyl)phenyl)-1,2,4-oxadiazol-5-yl)methyl)-5-methyl-1-(2-morpholinoethyl)imidazolidine-2,4-dione] |  |  |  |  | 170% | ≤ 4.6 nM | 177%
8 |  | 9.7 nM |  | CC1(C)C(=O)N(Cc2nc(-c3ccc(Oc4ccccc4S(=O)(=O)CCN(CCO)CCO)c(C(F)(F)F)c3)no2)C(=O)N1CCN1CCOCC1 [Compound 62, 3-((3-(4-(2-((2-(bis(2-hydroxyethyl)amino)ethyl)sulfonyl)phenoxy)-3-(trifluoromethyl)phenyl)-1,2,4-oxadiazol-5-yl)methyl)-5,5-dimethyl-1-(2-morpholinoethyl)imidazolidine-2,4-dione] |  |  | 154% | 148% |  |  | 
9 |  |  | 4.6 nM | CC(C)CS(=O)(=O)c1ccccc1Oc1ccc(-c2noc(CN3C(=O)N(CCN4CCOCC4)C4(CCN(C(=O)CCC(=O)O)CC4)C3=O)n2)cc1C(F)(F)F [Compound 68, 4-(3-((3-(4-(2-(isobutylsulfonyl)phenoxy)-3-(trifluoromethyl)phenyl)-1,2,4-oxadiazol-5-yl)methyl)-1-(2-morpholinoethyl)-2,4-dioxo-1,3,8-triazaspiro[4.5]decan-8-yl)-4-oxobutanoic acid] | 84% | 79.9% |  |  |  |  | 
10 | 0.665 nM |  |  | O=C(O)CCCCC(=O)N1CCC2(CC1)C(=O)N(Cc1nc(-c3ccc(Oc4ccccc4C(F)(F)F)c(C(F)(F)F)c3)no1)C(=O)N2CCN1CCOCC1 [Compound 69, 6-(1-(2-morpholinoethyl)-2,4-dioxo-3-((3-(3-(trifluoromethyl)-4-(2-(trifluoromethyl)phenoxy)phenyl)-1,2,4-oxadiazol-5-yl)methyl)-1,3,8-triazaspiro[4.5]decan-8-yl)-6-oxohexanoic acid] | 76.4% | 72.7% |  |  |  |  | 
11 |  | 99.2 nM |  | CC1(C)NC(=O)N(Cc2nc(-c3ccc(Oc4ccccc4SC(F)(F)F)c(C(F)(F)F)c3)no2)C1=O [Compound 70, 5,5-dimethyl-3-((3-(3-(trifluoromethyl)-4-(2-((trifluoromethyl)thio)phenoxy)phenyl)-1,2,4-oxadiazol-5-yl)methyl)imidazolidine-2,4-dione] |  |  | 67.4% | 64.7% |  |  | 
12 |  | 29.8 nM |  | CN1C(=O)N(Cc2nc(-c3ccc(Oc4ccccc4C(F)(F)F)c(C(F)(F)F)c3)no2)C(=O)C1(C)C [Compound 72, 1,5,5-trimethyl-3-((3-(3-(trifluoromethyl)-4-(2-(trifluoromethyl)phenoxy)phenyl)-1,2,4-oxadiazol-5-yl)methyl)imidazolidine-2,4-dione] |  |  | 82.8% | 79.5% |  |  | 
